Tested on: NF-κB signaling pathway in MT373 tumors
Assay: MT373 syngeneic sarcoma model: mouse NF-κB signaling pathway profiling panel
Assay type: in vivo

CCn1c(C#CCNc2ccccc2)cc2cc(CNC3CCN(C)CC3)ccc21 [Compound 1, 1-Anilino-3-{1-ethyl-5-[(1-methyl-4-piperidylamino)methyl]-1H-indol-2-yl}-2-propyne]
Agt fold increase over or percent reduction vs vehicle control (150 mg/kg BIDx1, 24 h): 8.18 ± 30.61 fold or % | Akt1 fold increase over or percent reduction vs vehicle control (150 mg/kg BIDx1, 24 h): 17.84 ± 6.63 fold or % | Atf1 fold increase over or percent reduction vs vehicle control (150 mg/kg BIDx1, 24 h): 42.27 ± 2.47 fold or % | Atf2 fold increase over or percent reduction vs vehicle control (150 mg/kg BIDx1, 24 h): 24.19 ± 2.49 fold or % | Bcl2a1a fold increase over or percent reduction vs vehicle control (150 mg/kg BIDx1, 24 h): 39.52 ± 5.46 fold or % | Bcl2l1 fold increase over or percent reduction vs vehicle control (150 mg/kg BIDx1, 24 h): 1.43 ± 0.11 fold or % | Bcl3 fold increase over or percent reduction vs vehicle control (150 mg/kg BIDx1, 24 h): 1.29 ± 0.31 fold or % | Bcl10 fold increase over or percent reduction vs vehicle control (150 mg/kg BIDx1, 24 h): 38.94 ± 3.05 fold or % | Birc3 fold increase over or percent reduction vs vehicle control (150 mg/kg BIDx1, 24 h): 1.03 ± 0.07 fold or % | Card10 fold increase over or percent reduction vs vehicle control (150 mg/kg BIDx1, 24 h): 1.32 ± 0.33 fold or % | Card11 fold increase over or percent reduction vs vehicle control (150 mg/kg BIDx1, 24 h): 1.14 ± 0.14 fold or % | Casp1 fold increase over or percent reduction vs vehicle control (150 mg/kg BIDx1, 24 h): 14.78 ± 4.65 fold or % | Casp8 fold increase over or percent reduction vs vehicle control (150 mg/kg BIDx1, 24 h): 9.24 ± 3.65 fold or % | Ccl2 fold increase over or percent reduction vs vehicle control (150 mg/kg BIDx1, 24 h): 57.69 ± 14.13 fold or % | Ccl5 fold increase over or percent reduction vs vehicle control (150 mg/kg BIDx1, 24 h): 21.82 ± 7.86 fold or % | Cd27 fold increase over or percent reduction vs vehicle control (150 mg/kg BIDx1, 24 h): 1.11 ± 0.11 fold or % | Cd40 fold increase over or percent reduction vs vehicle control (150 mg/kg BIDx1, 24 h): 30.05 ± 5.34 fold or % | Cflar fold increase over or percent reduction vs vehicle control (150 mg/kg BIDx1, 24 h): 1.01 ± 0.08 fold or % | Chuk fold increase over or percent reduction vs vehicle control (150 mg/kg BIDx1, 24 h): 1.03 ± 0.07 fold or % | Crebbp fold increase over or percent reduction vs vehicle control (150 mg/kg BIDx1, 24 h): 1.07 ± 0.06 fold or % | Csf1 fold increase over or percent reduction vs vehicle control (150 mg/kg BIDx1, 24 h): 14.27 ± 12.28 fold or % | Csf2 fold increase over or percent reduction vs vehicle control (150 mg/kg BIDx1, 24 h): 61.29 ± 2.87 fold or % | Csf3 fold increase over or percent reduction vs vehicle control (150 mg/kg BIDx1, 24 h): 27.25 ± 12.00 fold or % | Egfr fold increase over or percent reduction vs vehicle control (150 mg/kg BIDx1, 24 h): 28.45 ± 5.44 fold or % | Egr1 fold increase over or percent reduction vs vehicle control (150 mg/kg BIDx1, 24 h): 37.93 ± 8.71 fold or % | Eif2ak2 fold increase over or percent reduction vs vehicle control (150 mg/kg BIDx1, 24 h): 1.05 ± 0.10 fold or % | Elk1 fold increase over or percent reduction vs vehicle control (150 mg/kg BIDx1, 24 h): 12.50 ± 9.71 fold or % | F2r fold increase over or percent reduction vs vehicle control (150 mg/kg BIDx1, 24 h): 40.30 ± 2.19 fold or % | Fadd fold increase over or percent reduction vs vehicle control (150 mg/kg BIDx1, 24 h): 5.03 ± 3.48 fold or % | Fasl fold increase over or percent reduction vs vehicle control (150 mg/kg BIDx1, 24 h): 31.85 ± 3.66 fold or % | Fos fold increase over or percent reduction vs vehicle control (150 mg/kg BIDx1, 24 h): 12.09 ± 14.97 fold or % | Hmox1 fold increase over or percent reduction vs vehicle control (150 mg/kg BIDx1, 24 h): 13.99 ± 4.70 fold or % | Icam1 fold increase over or percent reduction vs vehicle control (150 mg/kg BIDx1, 24 h): 1.20 ± 0.24 fold or % | Ifng fold increase over or percent reduction vs vehicle control (150 mg/kg BIDx1, 24 h): 35.82 ± 11.11 fold or % | Ikbkb fold increase over or percent reduction vs vehicle control (150 mg/kg BIDx1, 24 h): 1.13 ± 0.20 fold or % | Ikbke fold increase over or percent reduction vs vehicle control (150 mg/kg BIDx1, 24 h): 1.48 ± 0.37 fold or % | Ikbkg fold increase over or percent reduction vs vehicle control (150 mg/kg BIDx1, 24 h): 1.07 ± 0.09 fold or % | Il1a fold increase over or percent reduction vs vehicle control (150 mg/kg BIDx1, 24 h): 13.50 ± 23.10 fold or % | Il1b fold increase over or percent reduction vs vehicle control (150 mg/kg BIDx1, 24 h): 63.25 ± 18.78 fold or % | Il1r1 fold increase over or percent reduction vs vehicle control (150 mg/kg BIDx1, 24 h): 31.14 ± 6.16 fold or % | Il10 fold increase over or percent reduction vs vehicle control (150 mg/kg BIDx1, 24 h): 1.52 ± 0.15 fold or % | Irak1 fold increase over or percent reduction vs vehicle control (150 mg/kg BIDx1, 24 h): 1.93 ± 9.47 fold or % | Irak2 fold increase over or percent reduction vs vehicle control (150 mg/kg BIDx1, 24 h): 24.86 ± 5.53 fold or % | Irf1 fold increase over or percent reduction vs vehicle control (150 mg/kg BIDx1, 24 h): 4.44 ± 20.95 fold or % | Jun fold increase over or percent reduction vs vehicle control (150 mg/kg BIDx1, 24 h): 29.31 ± 10.13 fold or % | Lta fold increase over or percent reduction vs vehicle control (150 mg/kg BIDx1, 24 h): 12.59 ± 29.28 fold or % | Ltbr fold increase over or percent reduction vs vehicle control (150 mg/kg BIDx1, 24 h): 11.61 ± 7.41 fold or % | Map3k1 fold increase over or percent reduction vs vehicle control (150 mg/kg BIDx1, 24 h): 1.40 ± 0.14 fold or % | Mapk3 fold increase over or percent reduction vs vehicle control (150 mg/kg BIDx1, 24 h): 10.05 ± 3.02 fold or % | Myd88 fold increase over or percent reduction vs vehicle control (150 mg/kg BIDx1, 24 h): 1.33 ± 0.11 fold or % | Nfkb1 fold increase over or percent reduction vs vehicle control (150 mg/kg BIDx1, 24 h): 1.39 ± 12.08 fold or % | Nfkb2 fold increase over or percent reduction vs vehicle control (150 mg/kg BIDx1, 24 h): 1.01 ± 0.29 fold or % | Nfkbia fold increase over or percent reduction vs vehicle control (150 mg/kg BIDx1, 24 h): 3.07 ± 2.68 fold or % | Nod1 fold increase over or percent reduction vs vehicle control (150 mg/kg BIDx1, 24 h): 1.24 ± 0.24 fold or % | Raf1 fold increase over or percent reduction vs vehicle control (150 mg/kg BIDx1, 24 h): 11.54 ± 3.56 fold or % | Rel fold increase over or percent reduction vs vehicle control (150 mg/kg BIDx1, 24 h): 1.09 ± 0.06 fold or % | Rela fold increase over or percent reduction vs vehicle control (150 mg/kg BIDx1, 24 h): 1.02 ± 0.07 fold or % | Relb fold increase over or percent reduction vs vehicle control (150 mg/kg BIDx1, 24 h): 1.10 ± 0.14 fold or % | Ripk1 fold increase over or percent reduction vs vehicle control (150 mg/kg BIDx1, 24 h): 1.25 ± 0.04 fold or % | Ripk2 fold increase over or percent reduction vs vehicle control (150 mg/kg BIDx1, 24 h): 27.80 ± 7.83 fold or % | Slc20a1 fold increase over or percent reduction vs vehicle control (150 mg/kg BIDx1, 24 h): 29.02 ± 4.69 fold or % | Smad3 fold increase over or percent reduction vs vehicle control (150 mg/kg BIDx1, 24 h): 4.92 ± 19.78 fold or % | Stat1 fold increase over or percent reduction vs vehicle control (150 mg/kg BIDx1, 24 h): 1.17 ± 0.19 fold or % | Tbk1 fold increase over or percent reduction vs vehicle control (150 mg/kg BIDx1, 24 h): 6.71 ± 4.73 fold or % | Tlr1 fold increase over or percent reduction vs vehicle control (150 mg/kg BIDx1, 24 h): 1.17 ± 0.16 fold or % | Tlr2 fold increase over or percent reduction vs vehicle control (150 mg/kg BIDx1, 24 h): 4.13 ± 15.48 fold or % | Tlr3 fold increase over or percent reduction vs vehicle control (150 mg/kg BIDx1, 24 h): 1.08 ± 0.12 fold or % | Tlr4 fold increase over or percent reduction vs vehicle control (150 mg/kg BIDx1, 24 h): 1.11 ± 0.05 fold or % | Tlr6 fold increase over or percent reduction vs vehicle control (150 mg/kg BIDx1, 24 h): 1.04 ± 0.10 fold or % | Tlr9 fold increase over or percent reduction vs vehicle control (150 mg/kg BIDx1, 24 h): 1.33 ± 0.19 fold or % | Tnf fold increase over or percent reduction vs vehicle control (150 mg/kg BIDx1, 24 h): 1.84 ± 47.89 fold or % | Tnfaip3 fold increase over or percent reduction vs vehicle control (150 mg/kg BIDx1, 24 h): 3.01 ± 14.38 fold or % | Tnfrsf1a fold increase over or percent reduction vs vehicle control (150 mg/kg BIDx1, 24 h): 1.21 ± 0.13 fold or % | Tnfrsf1b fold increase over or percent reduction vs vehicle control (150 mg/kg BIDx1, 24 h): 1.23 ± 0.12 fold or % | Tnfrsf10b fold increase over or percent reduction vs vehicle control (150 mg/kg BIDx1, 24 h): 2.61 ± 0.31 fold or % | Tnfsf10 fold increase over or percent reduction vs vehicle control (150 mg/kg BIDx1, 24 h): 18.51 ± 14.05 fold or % | Tnfsf14 fold increase over or percent reduction vs vehicle control (150 mg/kg BIDx1, 24 h): 1.11 ± 0.17 fold or % | Tollip fold increase over or percent reduction vs vehicle control (150 mg/kg BIDx1, 24 h): 1.01 ± 0.06 fold or % | Tradd fold increase over or percent reduction vs vehicle control (150 mg/kg BIDx1, 24 h): 1.17 ± 0.08 fold or % | Traf2 fold increase over or percent reduction vs vehicle control (150 mg/kg BIDx1, 24 h): 8.21 ± 7.59 fold or % | Traf3 fold increase over or percent reduction vs vehicle control (150 mg/kg BIDx1, 24 h): 13.02 ± 10.57 fold or % | Traf5 fold increase over or percent reduction vs vehicle control (150 mg/kg BIDx1, 24 h): 21.79 ± 2.60 fold or % | Traf6 fold increase over or percent reduction vs vehicle control (150 mg/kg BIDx1, 24 h): 1.03 ± 0.16 fold or % | Zap70 fold increase over or percent reduction vs vehicle control (150 mg/kg BIDx1, 24 h): 1.01 ± 0.07 fold or % | Agt fold increase over or percent reduction vs vehicle control (150 mg/kg BIDx1, 48 h): 1.60 ± 0.41 fold or % | Akt1 fold increase over or percent reduction vs vehicle control (150 mg/kg BIDx1, 48 h): 4.50 ± 1.92 fold or % | Atf1 fold increase over or percent reduction vs vehicle control (150 mg/kg BIDx1, 48 h): 42.46 ± 1.99 fold or % | Atf2 fold increase over or percent reduction vs vehicle control (150 mg/kg BIDx1, 48 h): 30.02 ± 3.86 fold or %

Source: patent US20230049952A1, “METHODS AND COMPOUNDS FOR RESTORING MUTANT P53 FUNCTION” (PMV Pharmaceuticals, Inc., priority 2020, published 2023)
